Laboratory results from patent US6001383A (priority 1994, dated 1999).
Where two headings read alike, the source gives them in different places.

Key:
[1] = tested on: Rhyzopertha dominica (F.), strain Rd2; settings: R. dominica adults, cited from earlier work
Cryptotermes domesticus = experiment: Toxicity to dry wood termites, C. domesticus; format: in vivo; settings: 24 h, 30° C., survival after one week
Description: (§1) Termites were obtained from cultures kept at 30° C. and 80% RH. Termites were transferred to 120 mL bottles fitted with Mininert valved lids and a 325 mg chip of plywood and sealed whilst at 80% RH and 30° C. All fumigations were performed in duplicate with a sample size of 10-11 insects for C. brevis, 25 insects for C. cyanocephalos and 22 insects for C. domesticus. An appropriate volume of air was removed from the sample bottles prior to the addition of fumigants. Dosed samples were analysed on a gas chromatograph to ensure concentrations were as predicted. A second set of gas chromatograph readings was taken prior to airing to ensure fumigant concentrations had remained static throughout the exposure period. […]
(§2) C2 N2 concentrations were measured on a Varian 3300 Gas Chromatograph equipped with a Thermionic Specific Detactor after separation on a DBwax column of internal diameter 0.53 mm. Phosphine concentrations were measured on a Shimadzu 6AM equipped with a Flame Photometric Detector. Methyl bromide concentrations were measured on a Shimadzu 6AM equipped with a Flame Ionisation Detector after separation on a GasChromQ with 20% OV-IO1 column.
(§3) After 24 hours exposure, termites and wood chips were transferred to plastic Petri dishes each containing a large piece of plywood. Initial and one week survivals were recorded.

[2] = Sorption and desorption on wheat, comparative; settings: 25 g wheat; C2 N2 10 mg/L, phosphine 2 mg/L, methyl bromide 32 mg/L
Description: Samples of wheat (25 g) were placed in 250 mL conical flasks of known volume. The flasks were stoppered with a gas tight stopper containing a rubber septum (injection port). Flasks were dosed with C2 N2 (10 mg/L), phosphine (2 mg/L) or methyl bromide (32 mg/L). After 24 h the headspace concentrations were determined by gas chromatography. Each flask was then opened and the wheat sample aired briefly by pouring the wheat from one container to another and then the remaining sorbed fumigant was estimated by grinding the wheat sample in a gas-tight Waring blender canister fitted was a sampling port and determining the released fumigant by head space analysis.

Cryptotermes brevis = experiment: Toxicity to dry wood termites, C. brevis; format: in vivo; settings: 24 h, 30° C., survival after one week
Description: as §1, §2, §3

[3] = tested on: Cryptotermes cyanocephalos; experiment: Toxicity to dry wood termites, C. cyanocephalos; format: in vivo; settings: 24 h, 30° C., survival after one week
Description: as §1, §2, §3

Carnation = experiment: Phytotoxicity to cut flowers, Carnation; settings: methyl bromide 30 mg L^-1, 2 h; control 5
Description: (§4) Field Carnations and Leucadendrons were purchased from a local wholesale florist. […]
(§5) After 2 hours the drums were opened and allowed to air in a fume hood, the flowers were removed from the drums, the stems trimmed and the bunches placed in water and left in the fume hood to air for 2 hours then placed in a cool room.
(§6) Assessment of the phytoxicity of the fumigants was done after one week of cold storage.
(§7) The phytoxicity assessments were made by a panel of six people who were asked independently to give a value out of 10 (Where 10 is excellent and 1 is unsaleable) for each flower and each treatment. The figures given below are the averaged results.

Leucadendron = experiment: Phytotoxicity to cut flowers, Leucadendron; settings: methyl bromide 30 mg L^-1, 2 h; control 7
Description: as §4, §5, §6, §7

[4] = cited from earlier work
[5] = cited from earlier work; for carcinogenicity: Sax and Lewis, 1989; for TLV value: worker safety limit

## S=C=S [carbon disulphide]
[1]; Monro, 1967
  CT product for control of adults: 294.0 mghL^-1

## P [phosphine]
Cryptotermes domesticus
  applied concentration giving 100% mortality: 0.22 mgL^-1
[2]
  initial fumigant remaining in headspace after 24 h: 91%
Cryptotermes brevis
  applied concentration giving 100% mortality: 0.43 mgL^-1
[3]
  applied concentration giving 100% mortality: 0.43 mgL^-1

## CBr [methyl bromide]
Cryptotermes domesticus
  applied concentration giving 100% mortality: 4.35 mgL^-1
[1]; Monro, 1967
  CT product for control of adults: 33.0 mghL^-1
[2]
  initial fumigant remaining in headspace after 24 h: 69%
Carnation
  phytotoxicity score (10 excellent, 1 unsaleable): 3
Leucadendron
  phytotoxicity score (10 excellent, 1 unsaleable): 6
Cryptotermes brevis
  applied concentration giving 100% mortality: 1.74 mgL^-1
[3]
  applied concentration giving 100% mortality: 3.47 mgL^-1

## O=C=S [carbonyl sulphide]
[1]; Desmarchelier 1994
  CT product for control of adults: 68.7 mghL^-1

## C1CO1 [ethylene oxide]
[4]
  solubility in water: poorly soluble in water
[5]
  carcinogenicity: suspect carcinogen
  TLV value: 0.1 ppm

## ClCCCl [ethylene dichloride]
[1]; Monro, 1967
  CT product for control of adults: 636.0 mghL^-1

## C=O [formaldehyde]
[5]
  carcinogenicity: suspect carcinogen
  TLV value: 1 ppm
